Reference: patent US8694073B2, “Predicting efficacy of psychiatric treatment” (University of Utah Research Foundation, priority 2008, dated 2014)
Values joined by “and” are separate entries in the source; they are usually repeats but may differ in a detail not shown here. Equal values may be shown once.

Tests used:
[1] = test system: MDD subjects; assay: 4-week open T3 augmentation of SSRI, HAMD-17 depression rating; assay type: in vivo, human
From the text: 19 depressed subjects were recruited through advertisements and clinical referrals for a treatment study at Massachusetts General Hospital between 2001 and 2003, and underwent ^31P MRS scans before and after antidepression treatment. All 19 depressed subjects were between ages of 18 and 65, and suffered from MDD, as determined by pre-antidepression treatment score of ≧16 on the HAMD-17 scale. All 19 MDD subjects had previously shown minimal or no response to treatment with an SSRI taken for ≧8 weeks, with ≧4 weeks at a stable dose (fluoxetine ≧40 mg/day, sertraline ≧100 mg/day, paroxetine ≧40 mg/day, citalopram ≧40 mg/day, escitalopram ≧20 mg/day).
The HAMD-17 scale was administered every 2 weeks.
Nonparametric Wilcoxon rank sum (Mann-Whitney U) test was used to compare baseline levels of ^31P MRS metabolites between MDD subjects and normal control subjects. Clinical outcome was defined as response to treatment (HAMD-17 reduction ≧50% during treatment).

[2] = test system: TSH; assay: TSH level by solid-phase radioimmunoassay before treatment and at 4-weeks follow-up; assay type: in vivo, human; settings: MDD subjects n=19, after 4 weeks T3; baseline TSH 1.75 ± .71

With N[C@@H](Cc1cc(I)c(Oc2ccc(O)c(I)c2)c(I)c1)C(=O)O [T3, triiodothyronine] as the compound, how does the “mean severity of depression HAMD-17 after 4 weeks of treatment” value ([1]; MDD subjects n=19, T3 50 μg daily added to existing SSRI, baseline HAMD-17 20.3±3.6) read?
Its value is 13.3±6.6.

And the “treatment responders (HAMD-17 reduction ≧50%)” value ([1]; MDD subjects, T3 50 μg daily added to SSRI, 4 weeks, seven subjects)?
Its value is 38.9% and 36.8%.

What about the “clinical remission (final HAMD-17<7)” value ([1]; MDD subjects, T3 50 μg daily added to SSRI, 4 weeks, six subjects) of the same compound?
The value was 31.6%.

And the “Final TSH” value [2]?
Its value is “.10 ± .24 mIU/L”.
